Measurements as given in US9975878B2, “Substituted triazine BMI-1 inhibitors” (PTC Therapeutics, Inc., priority 2013, dated 2018).

System: Bmi-1 protein
Test: Sandwich ELISA Assay: Bmi-1 protein level in HT-1080 cells treated with test compounds
Type: cell-based
Experimental: Cell Seeding and Compound Treatment (Day 1):
HT-1080 cells were seeded at 8000 cells/well (50 μL) in 96-well tissue culture plates. After the cells became adherent (3-4 hours), 2× diluted stocks of test compounds in 50 μL DMEM containing 1% DMSO (final DMSO concentration was 0.5%) were added and the plates were incubated at 37° C. under 5% CO2 for 40-48 hours.
ELISA Plate First Antibody Preparation (Day 2):
The First Antibody (Millipore Mouse, monoclonal to mouse Bmi-1, clone F6, catalog #05-637) diluted to 2 μg/mL in PBS was added (100 μL) to each well of a Nunc MaxiSorp 96-well ELISA plate. The plate was covered with a plate seal and allowed to stand overnight.
Cell Lysate Preparation (Day 3):
Fresh Lysis buffer (1×) was prepared on the day of the assay as follows: 1 mM EDTA, 150 mM NaCl, 0.5% Triton-X 100, 10 mM NaF, 20 mM B-Glycerophosphate, 1 mM DTT (in PBS, pH 7.2-7.4) and HALT protease inhibitor cocktail (1×) (Pierce #78410).
Lysis Buffer (1×, 40 μL) was added to each well and the plate was shaken for 5-10 minutes on an orbital shaker to allow cell lysis, then diluent (1% BSA in PBS in 0.5% NP40) (100 μL) was added to each well.
A standard curve was prepared at the following Bmi-1 concentrations: 8000, 4000, 2000, 1000, 500, 250, 125 and 0 pg/mL. The Bmi-1 Recombinant Protein Standard (Novus Biologicals PCGF4 Recombinant Protein (P01), catalog # H00000648-P01) used to prepare the standard curve was stored at −80° C. On first thaw, the Recombinant Protein Standard was diluted to 10 μg/μL in Blocking Buffer (1% BSA in PBS; BSA: Fisher Scientific Catalog #1600-100). Aliquots were taken and refrozen at −80° C. The aliquots may be kept at 4° C. and reused after first thaw, but only within 1-2 weeks. The Recombinant Protein Standard contains a GST-fusion tag that appears at approximately 70 Kda on Western Blot.
The prepared ELISA plate was washed 3× with Wash Buffer (0.05% Tween-20 in PBS). The final wash was removed from the plate and the plate was blotted dry. Blocking Buffer (300 μL) (1% BSA in PBS) was added to each well. The plate was covered with a plate seal and incubated at room temperature for 1 hour. The blocked plate was washed 3× with Wash Buffer, then the final wash was removed and the plate was blotted dry. The previously prepared samples and standards were added (100 μL/well) and the plate was covered with a plate seal and incubated at 4° C. overnight.
The prepared ELISA plate was removed from incubation and allowed to stand at room temperature for 30 minutes, then washed and blotted dry. The Second Antibody (Cell Signaling Rabbit anti-Bmi-1, Cat# 2830) diluted to 1:600 in Blocking Buffer was added (100 μL) to each well, except as needed for background control wells. The plate was covered with a plate seal and incubated for 1.5 hrs at room temperature.
The ELISA plate was washed and blotted dry as previously described. The Third Antibody (Cell Signaling HRP conjugated anti-rabbit IgG (CellSignaling, Cat#:7074) diluted to 1:300 in Blocking Buffer was added (100 μL) to each well, except as needed for background control wells. The plate was incubated for 1 hr at room temperature.
The plate was washed and blotted dry, then a previously prepared TMB substrate (TMB substrate kit, Pierce catalog #34021) (prepared by mixing kit reagents 1:1) (100 μL) was added per well. The plate was incubated for 20-30 minutes at room temperature in the dark, then Stop Solution (2 M sulfuric acid in water) (50 μL) was added per well. The plates were read at OD450 (experimental) and OD570 (reference).

| SMILES | EC50 [nM] |
| --- | --- |
| Nc1nc(Nc2ccc(Br)cc2)nc(-n2c(C3CC3)nc3ccccc32)n1 [Cpd 224, N-(4-bromophenyl)-6-(2-cyclopropyl-1H-benzimidazol-1-yl)-1,3,5-triazine-2,4-diamine] | 1 to 10 |
| CCc1nc2c(F)cccc2n1-c1nc(N)nc(Nc2ccc(Br)cc2)n1 [Cpd 216, N-(4-bromophenyl)-6-(2-ethyl-4-fluoro-1H-benzimidazol-1-yl)-1,3,5-triazine-2,4-diamine] | 1 to 10 |
| COc1ccc(Nc2nc(N)nc(-n3c(C)nc4cc(F)c(F)cc43)n2)cc1 [Cpd 194, 6-(5,6-difluoro-2-methyl-1H-benzimidazol-1-yl)-N-(4-methoxyphenyl)-1,3,5-triazine-2,4-diamine] | 1 to 10 |
| Cc1nc2ccc(F)cc2n1-c1nc(N)nc(Nc2ccc(C(F)(F)F)cc2)n1 [Cpd 26, 6-(6-fluoro-2-methyl-1H-benzimidazol-1-yl)-N-[4-(trifluoromethyl)phenyl]-1,3,5-triazine-2,4-diamine] | 10 to 100 |
| Cc1nc2ccccc2n1-c1nc(N)nc(Nc2ccc(Cl)c(F)c2)n1 [Cpd 197, N-(4-chloro-3-fluorophenyl)-6-(2-methyl-1H-benzimidazol-1-yl)-1,3,5-triazine-2,4-diamine] | 100 to 3000 |
| Cc1nc2cc(F)c(F)cc2n1-c1nc(N)nc(Nc2ccc(Cl)cc2)n1 [Cpd 196, N-(4-chlorophenyl)-6-(5,6-difluoro-2-methyl-1H-benzimidazol-1-yl)-1,3,5-triazine-2,4-diamine] | 100 to 3000 |
| Cc1nc2ccc(F)cc2n1-c1nncc(Nc2ccc(C(F)(F)F)cc2)n1 [Cpd 130, 3-(6-fluoro-2-methyl-1H-benzimidazol-1-yl)-N-[4-(trifluoromethyl)phenyl]-1,2,4-triazin-5-amine] | 100 to 3000 |
| Cc1nc2ccccc2n1-c1nc(NO)nc(Nc2ccc(C(F)(F)F)cc2)n1 [Cpd 13, N-hydroxy-6-(2-methyl-1H-benzimidazol-1-yl)-N′-[4-(trifluoromethyl)phenyl]-1,3,5-triazine-2,4-diamine] | 100 to 3000 |
| COc1ccc(Nc2nc(N)nc(-n3c(C4CC4)nc4ccc(F)cc43)n2)cc1 [Cpd 176, 6-(2-cyclopropyl-6-fluoro-1H-benzimidazol-1-yl)-N-(4-methoxyphenyl)-1,3,5-triazine-2,4-diamine] | 10 to 100 |
| CCc1nc2ccccc2n1-c1nc(N)nc(Nc2cccc(C)c2)n1 [Cpd 161, 6-(2-ethyl-1H-benzimidazol-1-yl)-N-(3-methylphenyl)-1,3,5-triazine-2,4-diamine] | 100 to 3000 |
| CCc1nc2c(F)cccc2n1-c1nc(N)nc(Nc2ccc(C)cc2)n1 [Cpd 213, 6-(2-ethyl-4-fluoro-1H-benzimidazol-1-yl)-N-(4-methylphenyl)-1,3,5-triazine-2,4-diamine] | 1 to 10 |
| CCc1nc2c(F)cccc2n1-c1nc(N)nc(Nc2ccc(OC(F)F)c(F)c2)n1 [Cpd 70, N-[4-(difluoromethoxy)-3-fluorophenyl]-6-(2-ethyl-4-fluoro-1H-benzimidazol-1-yl)-1,3,5-triazine-2,4-diamine] | 10 to 100 |
| Cc1nc2ccc(Cl)cc2n1-c1nc(N)nc(Nc2ccc(OC(F)F)cc2)n1 [Cpd 81, 6-(6-chloro-2-methyl-1H-benzimidazol-1-yl)-N-[4-(difluoromethoxy)phenyl]-1,3,5-triazine-2,4-diamine] | 10 to 100 |
| Cc1nc2ncc(Br)cc2n1-c1nc(N)nc(Nc2ccc(C(F)(F)F)cc2)n1 [Cpd 32, 6-(6-bromo-2-methyl-1H-imidazo[4,5-b]pyridin-1-yl)-N-[4-(trifluoromethyl)phenyl]-1,3,5-triazine-2,4-diamine] | 10 to 100 |
| FC(F)Oc1ccc(Nc2cnnc(-n3c(C4CC4)nc4ccccc43)n2)cc1 [Cpd 113, 3-(2-cyclopropyl-1H-benzimidazol-1-yl)-N-[4-(difluoromethoxy)phenyl]-1,2,4-triazin-5-amine] | 10 to 100 |
| CCc1nc2cc(F)ccc2n1-c1nc(N)nc(Nc2ccc(OC(F)F)c(F)c2)n1 [Cpd 60, N-[4-(difluoromethoxy)-3-fluorophenyl]-6-(2-ethyl-5-fluoro-1H-benzimidazol-1-yl)-1,3,5-triazine-2,4-diamine] | 10 to 100 |
| Cc1nc2cc(F)c(F)cc2n1-c1nc(N)nc(Nc2ccc(Br)cc2)n1 [Cpd 210, N-(4-bromophenyl)-6-(5,6-difluoro-2-methyl-1H-benzimidazol-1-yl)-1,3,5-triazine-2,4-diamine] | 10 to 100 |
| Cc1cccc(Nc2nc(N)nc(-n3c(C4CC4)nc4ccccc43)n2)c1 [Cpd 156, 6-(2-cyclopropyl-1H-benzimidazol-1-yl)-N-(3-methylphenyl)-1,3,5-triazine-2,4-diamine] | 100 to 3000 |
| CCc1nc2ccc(F)cc2n1-c1nncc(Nc2ccc(C(F)(F)F)cc2)n1 [Cpd 131, 3-(2-ethyl-6-fluoro-1H-benzimidazol-1-yl)-N-[4-(trifluoromethyl)phenyl]-1,2,4-triazin-5-amine] | 100 to 3000 |
| Cc1nc2cc(F)c(F)cc2n1-c1nc(N)nc(Nc2ccc(C(F)(F)F)cc2)n1 [Cpd 9, 6-(5,6-difluoro-2-methyl-1H-benzimidazol-1-yl)-N-[4-(trifluoromethyl)phenyl]-1,3,5-triazine-2,4-diamine] | 100 to 3000 |
| Cc1nc2cc(F)ccc2n1-c1nc(N)nc(Nc2ccc(C(F)(F)F)cc2)n1 [Cpd 27, 6-(5-fluoro-2-methyl-1H-benzimidazol-1-yl)-N-[4-(trifluoromethyl)phenyl]-1,3,5-triazine-2,4-diamine] | 100 to 3000 |
| Cc1ccc(Nc2nc(N)nc(-n3c(C4CC4)nc4ccc(F)cc43)n2)cc1 [Cpd 177, 6-(2-cyclopropyl-6-fluoro-1H-benzimidazol-1-yl)-N-(4-methylphenyl)-1,3,5-triazine-2,4-diamine] | 1 to 10 |
| CCc1nc2c(F)cc(F)cc2n1-c1nc(N)nc(Nc2ccc(C(F)(F)F)cc2)n1 [Cpd 45, 6-(2-ethyl-4,6-difluoro-1H-benzimidazol-1-yl)-N-[4-(trifluoromethyl)phenyl]-1,3,5-triazine-2,4-diamine] | 10 to 100 |
| Cc1nc2c(F)cccc2n1-c1nc(N)nc(Nc2ccc(Br)cc2)n1 [Cpd 219, N-(4-bromophenyl)-6-(4-fluoro-2-methyl-1H-benzimidazol-1-yl)-1,3,5-triazine-2,4-diamine] | 10 to 100 |
| Cc1cccc(Nc2nc(N)nc(-n3c(C)nc4ccccc43)n2)c1 [Cpd 149, 6-(2-methyl-1H-benzimidazol-1-yl)-N-(3-methylphenyl)-1,3,5-triazine-2,4-diamine] | 100 to 3000 |
| CCc1nc2ccc(F)cc2n1-c1nc(N)nc(Nc2ccc(OC(F)(F)F)cc2)n1 [Cpd 171, 6-(2-ethyl-6-fluoro-1H-benzimidazol-1-yl)-N-[4-(trifluoromethoxy)phenyl]-1,3,5-triazine-2,4-diamine] | 100 to 3000 |
| Nc1nc(Nc2ccc(OC(F)F)cc2)nc(-n2c(C3CC3)nc3ncc(F)cc32)n1 [Cpd 77, 6-(2-cyclopropyl-6-fluoro-1H-imidazo[4,5-b]pyridin-1-yl)-N-[4-(difluoromethoxy)phenyl]-1,3,5-triazine-2,4-diamine] | 10 to 100 |
| Nc1nc(Nc2ccc(OC(F)F)nc2)nc(-n2c(CF)nc3ccccc32)n1 [Cpd 110, N-[6-(difluoromethoxy)pyridin-3-yl]-6-[2-(fluoromethyl)-1H-benzimidazol-1-yl]-1,3,5-triazine-2,4-diamine] | 100 to 3000 |
| Cc1nc2ccccc2n1-c1cnnc(Nc2ccc(C(F)(F)F)cc2)n1 [Cpd 112, 5-(2-methyl-1H-benzimidazol-1-yl)-N-[4-(trifluoromethyl)phenyl]-1,2,4-triazin-3-amine] | 100 to 3000 |
| CCc1nc2cc(F)ccc2n1-c1nc(N)nc(Nc2ccc(OC(F)F)cc2)n1 [Cpd 59, N-[4-(difluoromethoxy)phenyl]-6-(2-ethyl-5-fluoro-1H-benzimidazol-1-yl)-1,3,5-triazine-2,4-diamine] | 10 to 100 |
